Results: publication PMC12606047, “Targeting the Liquid–Liquid Separation Region of c‐Maf for Treating Chromosomal Translocations in Multiple Myeloma” (MedComm, 2025)

Key:
c-Maf protein [1] = molecular target: T1, c-Maf protein (Homo sapiens, UniProt O75444); test: Microscale thermophoresis (MST) binding to c-Maf protein; settings: labelled purified c-Maf protein; read-out: MST dissociation constant (Kd)
T1 construct: made in house; host or cells: prokaryotic (pET-28a vector)
T1 sequence (O75444 1-373): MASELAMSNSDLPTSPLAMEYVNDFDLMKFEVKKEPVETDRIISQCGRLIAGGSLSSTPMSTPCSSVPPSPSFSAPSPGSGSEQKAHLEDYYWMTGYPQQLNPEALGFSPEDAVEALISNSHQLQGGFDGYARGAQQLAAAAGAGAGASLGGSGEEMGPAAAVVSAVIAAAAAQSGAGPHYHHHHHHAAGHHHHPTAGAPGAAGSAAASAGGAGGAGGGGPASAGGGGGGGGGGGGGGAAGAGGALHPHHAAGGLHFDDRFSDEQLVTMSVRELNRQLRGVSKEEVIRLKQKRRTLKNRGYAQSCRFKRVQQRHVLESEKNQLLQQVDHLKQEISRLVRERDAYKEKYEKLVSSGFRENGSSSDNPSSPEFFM
Experimental: To determine if the screened compound interacts with the c-Maf protein, we used a MonolithTM RED-NHS second generation protein labelling kit (NanoTemper Germany) to fluorescently label 10 µM of purified c-Maf protein. We then mixed various concentrations of the drug with an equal concentration of c-Maf protein and incubated the mixture for 5 min at room temperature. The mixture was then aspirated with a capillary tube and the binding capacity was measured using a new generation biomolecular interaction assay (NanoTemper Germany). The Kd values were calculated using analytical software.

c-Maf protein [2] = molecular target: T1, c-Maf protein; test: Surface plasmon resonance (SPR) binding to c-Maf protein; settings: values given in mM; read-out: SPR dissociation constant (Kd)
ARP1 cells = test: MTT proliferation assay, ARP1 cells; format: cell-based, human; settings: ARP1 WT; Table 2 prints no cell line, its BBA value equals the ARP1 IC50 of b29
MM PDX tumor = test: MM patient-derived tumor xenograft (PDX) model; format: in vivo, NOD/SCID mice; settings: IHC and IF, single treatment
Experimental: The biopsy sample was taken from tumor tissue excised from MM patient at Nanjing Hospital of Chinese Medicine affiliated with Nanjing University of Chinese Medicine. The tissue was then cut into 2.5×2.5×2.5 mm^3 pieces and transplanted subcutaneously into 6-week-old NOD/SCID male mice (n = 6 mice in each group) under anesthesia with 1% sodium pentobarbital. […] This process was repeated three times to ensure stable tumor growth. […] Single treatment was administered every three days, while combination treatment was administered every other day.

[3] = tested on: 5TMM3VT mouse myeloma cells; test: 5TMM3VT mouse model; format: in vivo, C57BL/KaLwRij mice; settings: single treatment; BBA 5 mg/kg, BTZ 1 mg/kg
Experimental: 5TMM3VT mouse myeloma cells (1 × 10^6) were injected through the tail vein into C57BL/KaLwRij mice from Harlan Laboratories (n = 9 per group). The mice were randomly divided into four groups (Ctrl, BBA, BTZ and BBA+BTZ combination groups). On the third day after modeling, oral administration of PBS, BBA (5 mg/kg) and BTZ (1 mg/kg) was performed twice a week, while combination therapy was administered every other day.

| Compound | Kd (c-Maf protein [1]) [µM] | Kd (c-Maf protein [2]) [mM] | MTT IC50 (ARP1 cells) | Expression of c-Maf, Ki67, RNA Pol II, Mtbp, c-Myc and c-Maf/RNA Pol II co-localization in tumors (MM PDX tumor) | Survival time of 5TMM3VT mice [3] |
| --- | --- | --- | --- | --- | --- |
| Chlorophenylacetamide | 555 | 3.31 | Unstable | – | – |
| CC(C)C[C@H](NC(=O)[C@H](Cc1ccccc1)NC(=O)c1cnccn1)B(O)O [BTZ, bortezomib] | – | – | – | inhibited | significantly improved |
